Literature values, collected in US7855190B2, “Methods of hormonal treatment utilizing contraceptive regimens with continuous estrogen administration” (Teva Women's Health, Inc., priority 2003, dated 2010).

Settings: relative potency of estrogens

| Structure (SMILES) | amount roughly equivalent to 30 μg of ethinyl estradiol |
| --- | --- |
| C[C@]12CC[C@@H]3c4ccc(O)cc4CC[C@H]3[C@@H]1CC[C@@H]2O [17β-estradiol] | ~2,000 μg |
| C#C[C@]1(O)CC[C@H]2[C@@H]3CCc4cc(OC)ccc4[C@H]3CC[C@@]21C [mestranol] | ~60 µg |

Same assay, conditions: relative potency of progestins

| Structure (SMILES) | amount equivalent to 0.050 mg of levonorgestrel |
| --- | --- |
| C#CC1(O)CC[C@H]2[C@@H]3CCC4=CC(=O)CC[C@@H]4[C@H]3CC[C@@]21CC (mixture of isomers) [norgestrel] | about 0.100 mg |
| C#C[C@]1(O)CC[C@H]2[C@@H]3CCC4=CC(=O)CC[C@@H]4[C@H]3C(=C)C[C@@]21CC [3-ketodesogestrel] | about 0.050 mg |
| C#C[C@]1(O)C=C[C@H]2[C@@H]3CCC4=CC(=O)CC[C@@H]4[C@H]3CC[C@@]21CC [gestodene] | about 0.035 mg |
| C#C[C@]1(O)CC[C@H]2[C@@H]3CCC4=CCCC[C@@H]4[C@H]3C(=C)C[C@@]21CC [desogestrel] | about 0.050 mg |
| C#C[C@]1(OC(C)=O)CC[C@H]2[C@@H]3CCC4=CC(=O)CC[C@@H]4[C@H]3CC[C@@]21C [norethindrone acetate] | about 0.175 mg |
